Measurements reported in EPA's ToxValDB 9.5 (doi:10.2903/j.efsa.2018.5152).

Columns and labels:
Apis mellifera = settings: acute, mortality
Typhlodromus pyri = test: LR50; higher = less toxic; settings: not reported; mortality
Colinus virginianus = settings: chronic
[1] = short-term; duration: 28 days; reproduction
Tagia sp. = settings: chronic/long-term; duration: 28 days; reproduction
Oncorhynchus mykiss = settings: acute; duration: 96 hours; mortality
Aphidius rhopalosiphi = test: LR50; higher = less toxic; settings: not reported; mortality

[Cl-].[Cu+2].[Cu+2].[OH-].[OH-].[OH-] [Dicopper chloride trihydroxide]
LD50 (Apis mellifera; dermal): 44.3 µg/piece
LD50 (Apis mellifera; oral, unspecified): 12.1 µg/piece
NOEC (Daphnia magna; chronic/long-term, duration: 21 days, reproduction): 0.0076 mg/L
LR50 (Typhlodromus pyri): > 14900 g/ha

O.O.[Cu] [Copper hydroxide (Cu(OH)2)]
LD50 (Apis mellifera; dermal): 44.5 µg/piece
NOEL (Colinus virginianus): 5.05 mg/kg-day
LC50 (Daphnia magna; acute, duration: 48 hours, mortality): 0.0266 µg/mL
LR50 (Typhlodromus pyri): > 14900 g/ha

[Cl][Cu][Cl] [Copper(II) chloride]
NOEC [1]: 16.2 mg/kg-day
NOEC (Tagia sp.): 8.4 mg/kg

[Cu+].[Cu+].[O-2] [Cuprous oxide]
LC50 (Oncorhynchus mykiss): 0.207 µg/mL
LR50 (Typhlodromus pyri): > 26100 g/ha
LR50 (Aphidius rhopalosiphi): 39200 g/ha
